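Grown in 96-well plates, cells were treated for 48 hours with each compound at five concentrations. Insufficient inhibition: endpoint recorded as highest concentration tested. GI50: concentration for 50% inhibition of growth.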 The source made the active and inactive calls. Cut-off read from the data, not from the text of the source: active = GI50 up to about 1.1 µM and inactive = higher.
Columns and labels:
Experiment in all cases: NCI anticancer screen, dose series, 48 h
[1] = system: NCI-H460
[2] = system: SR
[3] = system: NCI-H226
[4] = system: OVCAR-3
[5] = system: IGROV-1
[6] = system: RPMI-8226
[7] = system: MDA-MB-231
[8] = system: TK-10
[9] = system: OVCAR-8
[10] = system: RXF 393
[11] = system: EKVX
[12] = system: HCT-15
[13] = system: DU-145
[14] = system: LOX IMVI
[15] = system: HOP-62
[16] = system: COLO 205
[17] = system: SK-MEL-28
[18] = system: OVCAR-5
[19] = system: 786-0
[20] = system: UACC-257

Structure (SMILES) | GI50 [1] | GI50 [2] | GI50 [3] | GI50 [4] | GI50 [5] | GI50 [6] | GI50 [7] | GI50 [8] | GI50 [9] | GI50 [10] | GI50 [11] | GI50 [12] [µM] | GI50 [13] | GI50 [14] | GI50 [15] | GI50 [16] | GI50 [17] | GI50 [18] | GI50 [19] | GI50 [20]
O=C([C@H](O)[C@@H](O)c1cccc(Cl)c1)C12CC3CC(CC(C3)C1)C2 | 1.85 µM (inactive) | 2.07 µM (inactive) | 4.32 µM (inactive) | 1.94 µM (inactive) | 1.34 µM (inactive) | 0.838 µM (active) | 2.12 µM (inactive) | 1.98 µM (inactive) | 1.88 µM (inactive) | 2.37 µM (inactive) | 2.07 µM (inactive) | 2.24 | 2.25 µM (inactive) | 1.22 µM (inactive) | 2.69 µM (inactive) | 2.13 µM (inactive) | 3.21 µM (inactive) | 3.1 µM (inactive) | 1.05 µM (active) | 2.21 µM (inactive)
CC(C)(CCc1nc2ccccc2[nH]1)C(=O)O | > 100 µM (inactive) | > 100 µM (inactive) | > 100 µM (inactive) | > 100 µM (inactive) | > 100 µM (inactive) | > 100 µM (inactive) | > 100 µM (inactive) | > 100 µM (inactive) | > 100 µM (inactive) | > 100 µM (inactive) | > 100 µM (inactive) | > 100 | > 100 µM (inactive) | > 100 µM (inactive) | > 100 µM (inactive) | > 100 µM (inactive) | > 100 µM (inactive) | > 100 µM (inactive) | > 100 µM (inactive) | > 100 µM (inactive)
O=C(NCCc1ccccc1)c1cc(/C=C/c2cc(O)ccc2O)ccc1O | 9.44 µM (inactive) | 3.01 µM (inactive) | 9.66 µM (inactive) | 2.67 µM (inactive) | 3.03 µM (inactive) | 1.82 µM (inactive) | 4.36 µM (inactive) | 2.93 µM (inactive) | 3.85 µM (inactive) | 1.93 µM (inactive) | 2.91 µM (inactive) | 2.71 | 8.59 µM (inactive) | 4.17 µM (inactive) | 5.69 µM (inactive) | 5.61 µM (inactive) | 3.08 µM (inactive) | 8.69 µM (inactive) | 2.38 µM (inactive) | 2.64 µM (inactive)
Cn1c(=O)c2nc(CSCc3ccccc3)[nH]c2n(C)c1=O | > 100 µM (inactive) | > 100 µM (inactive) | > 100 µM (inactive) | > 100 µM (inactive) | > 100 µM (inactive) | 67.6 µM (inactive) | > 100 µM (inactive) | > 100 µM (inactive) | > 100 µM (inactive) | > 100 µM (inactive) | 24.8 µM (inactive) | > 100 | > 100 µM (inactive) | > 100 µM (inactive) | > 100 µM (inactive) | > 100 µM (inactive) | > 100 µM (inactive) | > 100 µM (inactive) | > 100 µM (inactive) | > 100 µM (inactive)
CC1(C)N=C2C(=O)c3c([nH]c4ccccc34)[C@]3(C)CCC1CC23 (stereo not given in full) | > 6.25 µM (inactive) | > 6.25 µM (inactive) | > 6.25 µM (inactive) | > 6.25 µM (inactive) | > 6.25 µM (inactive) | > 6.25 µM (inactive) | > 6.25 µM (inactive) | > 6.25 µM (inactive) | > 6.25 µM (inactive) | > 6.25 µM (inactive) | > 6.25 µM (inactive) | > 6.25 | > 6.25 µM (inactive) | > 6.25 µM (inactive) | > 6.25 µM (inactive) | > 6.25 µM (inactive) | > 6.25 µM (inactive) | > 6.25 µM (inactive) | > 6.25 µM (inactive) | > 6.25 µM (inactive)
O=c1[nH]n(Cc2ccccc2CCl)c2ccc([N+](=O)[O-])cc12 | 23.8 µM (inactive) | 33.6 µM (inactive) | 93.5 µM (inactive) | 48.2 µM (inactive) | > 100 µM (inactive) | 32 µM (inactive) | 38.4 µM (inactive) | 54.3 µM (inactive) | 40.5 µM (inactive) | 32.9 µM (inactive) | 45.2 µM (inactive) | 60.8 | 59.7 µM (inactive) | 55.7 µM (inactive) | 47.6 µM (inactive) | 26.1 µM (inactive) | 34.5 µM (inactive) | > 100 µM (inactive) | 55.5 µM (inactive) | 64.4 µM (inactive)
S=C(N/N=C(/c1ccccc1)c1ccccn1)Nc1ccc(Cl)cc1 | 0.531 µM (active) | < 0.0204 µM (active) | 0.542 µM (active) | < 0.0316 µM (active) | 0.112 µM (active) | < 0.0221 µM (active) | < 0.0106 µM (active) | 0.551 µM (active) | 0.0444 µM (active) | 1.85 µM (inactive) | 0.462 µM (active) | 0.067 | 1.87 µM (inactive) | 0.164 µM (active) | 1.93 µM (inactive) | 0.0418 µM (active) | 2.28 µM (inactive) | 0.0705 µM (active) | 1.05 µM (active) | 0.0569 µM (active)
CN(C)C(=S)/N=c1\ssc(=S)n1Cc1cccs1 | 3.73 µM (inactive) | 4.88 µM (inactive) | 13.7 µM (inactive) | 1.76 µM (inactive) | 4.11 µM (inactive) | 5.81 µM (inactive) | 4.42 µM (inactive) | 8.24 µM (inactive) | 4.99 µM (inactive) | 2.19 µM (inactive) | 26.2 µM (inactive) | 2.84 | 3.24 µM (inactive) | 4.06 µM (inactive) | 3.64 µM (inactive) | 2.36 µM (inactive) | 8.41 µM (inactive) | > 55.3 µM (inactive) | 3.83 µM (inactive) | 6.76 µM (inactive)
CC(C)c1ccc(/C=C2\CSCC3=C2N=C(S)NC3c2ccc(C(C)C)cc2)cc1 (stereo not given) | > 100 µM (inactive) | 53.3 µM (inactive) | > 100 µM (inactive) | > 100 µM (inactive) | > 100 µM (inactive) | 67.6 µM (inactive) | > 100 µM (inactive) | > 100 µM (inactive) | > 100 µM (inactive) | 30.9 µM (inactive) | 61.8 µM (inactive) | 89.5 | > 100 µM (inactive) | 51.6 µM (inactive) | > 100 µM (inactive) | > 100 µM (inactive) | > 100 µM (inactive) | > 100 µM (inactive) | > 100 µM (inactive) | 34.6 µM (inactive)
Cn1c2ccccc2c2c3c(=O)[nH][nH]c(=O)c3c3c4ccccc4n(C)c3c21 | 16.9 µM (inactive) | < 0.01 µM (active) | > 100 µM (inactive) | > 100 µM (inactive) | > 100 µM (inactive) | 13.6 µM (inactive) | > 100 µM (inactive) | > 100 µM (inactive) | > 100 µM (inactive) | > 100 µM (inactive) | > 100 µM (inactive) | 99.1 | > 100 µM (inactive) | > 100 µM (inactive) | > 96.6 µM (inactive) | > 89.1 µM (inactive) | > 100 µM (inactive) | > 100 µM (inactive) | > 100 µM (inactive) | > 100 µM (inactive)
COC(=O)[C@@](NC(=O)OCc1ccccc1)([C@H](C)O)C(F)(F)F | > 100 µM (inactive) | 50.1 µM (inactive) | > 100 µM (inactive) | > 100 µM (inactive) | > 100 µM (inactive) | > 100 µM (inactive) | > 100 µM (inactive) | > 100 µM (inactive) | > 100 µM (inactive) | 53.5 µM (inactive) | > 100 µM (inactive) | > 100 | > 100 µM (inactive) | > 100 µM (inactive) | > 100 µM (inactive) | > 100 µM (inactive) | > 100 µM (inactive) | > 100 µM (inactive) | > 100 µM (inactive) | > 100 µM (inactive)
C/C(=N/NC(=S)Nc1cccc(C)c1)c1ccccn1 | 0.284 µM (active) | < 0.01 µM (active) | 0.0582 µM (active) | < 0.01 µM (active) | < 0.01 µM (active) | < 0.01 µM (active) | < 0.01 µM (active) | 0.274 µM (active) | < 0.0183 µM (active) | 1.12 µM (inactive) | 0.0685 µM (active) | 0.0119 | 2.19 µM (inactive) | < 0.0121 µM (active) | 0.0341 µM (active) | < 0.01 µM (active) | 1.71 µM (inactive) | 0.0392 µM (active) | 0.0217 µM (active) | < 0.01 µM (active)
Cc1cnc2c(c1)C(=O)C1=C(C2=O)C2OC(=O)CC2OC1(C)C (stereo not given) | 0.76 µM (active) | 0.0389 µM (active) | 0.979 µM (active) | < 0.01 µM (active) | 0.179 µM (active) | 0.188 µM (active) | 0.0764 µM (active) | 0.735 µM (active) | 0.29 µM (active) | 0.205 µM (active) | 0.209 µM (active) | 0.0643 | 1.64 µM (inactive) | 0.193 µM (active) | 1.18 µM (inactive) | 0.0462 µM (active) | 0.684 µM (active) | 0.301 µM (active) | 0.258 µM (active) | 0.198 µM (active)
COc1cccc(/N=C/c2cc(OC)c(OC)c(OC)c2)c1 | 64.9 µM (inactive) | > 23.1 µM (inactive) | > 54.8 µM (inactive) | 1 µM (active) | > 100 µM (inactive) | > 100 µM (inactive) | > 100 µM (inactive) | > 100 µM (inactive) | > 100 µM (inactive) | 78.7 µM (inactive) | > 86.7 µM (inactive) | 56.1 | > 100 µM (inactive) | > 37.2 µM (inactive) | 94 µM (inactive) | 17.8 µM (inactive) | > 75.7 µM (inactive) | > 53.2 µM (inactive) | > 100 µM (inactive) | > 100 µM (inactive)
